For 68 compounds, IC50 results are on record in patent publication US12336982B2 (RODEO THERAPEUTICS CORPORATION, priority 2018, dated 2025).

The target of the assay is T1, recombinant 15-PGDH (Homo sapiens, UniProt P15428).
T1 sequence (P15428 1-266): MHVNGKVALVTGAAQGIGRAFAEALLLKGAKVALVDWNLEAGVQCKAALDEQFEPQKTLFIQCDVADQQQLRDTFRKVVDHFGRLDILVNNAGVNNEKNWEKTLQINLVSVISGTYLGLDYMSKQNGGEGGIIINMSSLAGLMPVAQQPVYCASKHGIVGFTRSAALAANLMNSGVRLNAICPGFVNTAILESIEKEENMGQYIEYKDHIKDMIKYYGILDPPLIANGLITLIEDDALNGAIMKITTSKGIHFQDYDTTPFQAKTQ
The class given is biochemical. The following applies: recombinant human 15-PGDH, in vitro; read-out: PDGH Assay-IC50.

From the text: The Recombinant 15-PGDH is human unless otherwise specified.

Turning to `COCC[S@@+]([O-])c1sc2nc(-c3cnc4nn(C)nc4c3)cc(-c3ccnn3C)c2c1N` [Example 381], the IC50 is less than 2.5 nM.

For the compound `Nc1c([S+]([O-])C2CCC2)sc2nc(-c3cnc(NCCO)nc3)cc(-c3ccon3)c12` (centres unmarked) [Example 351], the IC50 is less than 2.5 nM.

As to `CN1CCN(c2ncc(-c3cc(-c4ccccc4)c4c(N)c([S@+]([O-])C5CCC5)sc4n3)cn2)CC1` [Example 48], the IC50 was less than 2.5 nM.

Consider `COCCC[S+]([O-])c1sc2nc(-c3cnc4nn(C)cc4c3)cc(-c3cccnc3)c2c1N` (centres unmarked) [Example 75], for which the IC50 was less than 2.5 nM.

For the compound `Cc1ncc(-c2cc(-c3ccccc3)c3c(N)c([S+]([O-])C4CCC4)sc3n2)cn1` (centres unmarked) [Example 99], the IC50 is less than 2.5 nM.

Consider `Nc1c([S+]([O-])C2CCC2)sc2nc(-c3cncnc3)cc(C(F)(F)F)c12` (centres unmarked) [Example 204], for which the IC50 is less than 2.5 nM.

Consider `COCC[S+]([O-])c1sc2nc(-c3cnc4nn(C)cc4c3)cc(-c3ccn(C)n3)c2c1N` (centres unmarked) [Example 342], for which the IC50 is less than 2.5 nM.

Turning to `Nc1c([S@+]([O-])C2CCC2)sc2nc(-c3cnc(NCCO)nc3)cc(-c3ccccc3)c12` [Example 51], the IC50 was less than 2.5 nM.

For `Nc1c([S+]([O-])C2CCC2)sc2nc(-c3ccc(NCCO)nc3)cc(-c3ccccn3)c12` (centres unmarked) [Example 83], the IC50 was less than 2.5 nM.

As to `Nc1c([S+]([O-])C2CCC2)sc2nc(-c3cncnc3)cc(-c3ccc(C4COC4)cn3)c12` (centres unmarked) [Example 128], the IC50 was less than 2.5 nM.

`COCC[S@@+]([O-])c1sc2nc(-c3cnc4nn(C)cc4c3)cc(-c3ccnn3C)c2c1N` [Example 335]: the IC50 was less than 2.5 nM.

As for `COCC[S@@+]([O-])c1sc2nc(-c3cccnc3)nc(-c3ccccc3)c2c1N` [Example 55], the IC50 is less than 2.5 nM.

As to `COCC[S+]([O-])c1sc2nc(-c3cccnc3)nc(C3CC3)c2c1N` (centres unmarked) [Example 190], the IC50 is less than 2.5 nM.

On to `COCC[S+]([O-])c1sc2nc(-c3ccc(NC(=O)OC)nc3)cc(C3CCC3)c2c1N` (centres unmarked) [Example 391], for which the IC50 lay within 2.5 to 10 nM.

Consider `COCCC[S+]([O-])c1sc2nc(-c3ccc(=O)n(C)c3)cc(-c3ccccc3)c2c1N` (centres unmarked) [Example 161], for which the IC50 is less than 2.5 nM.

As to `Cn1cnc2ncc(-c3cc(C4CC4)c4c(N)c([S+]([O-])C5CCC5)sc4n3)cc21` (centres unmarked) [Example 407], the IC50 was less than 2.5 nM.

Turning to `Nc1ncc(-c2cc(C(F)(F)F)c3c(N)c([S+]([O-])C4CCC4)sc3n2)cn1` (centres unmarked) [Example 429], the IC50 lay within 2.5 to 10 nM.

On to `COCC[S@+]([O-])c1sc2nc(-c3cnc4ncn(C)c4c3)cc(-c3ccccc3)c2c1N` [Example 363], for which the IC50 was not below 10 nM.

Regarding `COCC[S@@+]([O-])c1sc2nc(-c3cncnc3)cc(C3CC3)c2c1N` [Example 148], the IC50 is less than 2.5 nM.

Turning to `Cn1nccc1-c1cc(-c2cnc(NCCO)nc2)nc2sc([S+]([O-])C(C)(C)C)c(N)c12` (centres unmarked) [Example 354], the IC50 is less than 2.5 nM.

For the compound `Nc1c([S@+]([O-])C2CCC2)sc2nc(-c3ccc(NCCO)nc3)cc(-c3ccccn3)c12` [Example 97], the IC50 was less than 2.5 nM.

`COCC[S+]([O-])c1sc2nc(-c3cnc(N)nc3)cc(C3CC3)c2c1N` (centres unmarked) [Example 110]: the IC50 is less than 2.5 nM.

Turning to `COCC[S+]([O-])c1sc2nc(-c3cnc4nncn4c3)cc(-c3ccccc3)c2c1N` (centres unmarked) [Example 358], the IC50 is not below 10 nM.

Consider `Cn1cc(-c2cc(C(F)(F)F)c3c(N)c([S+]([O-])C4CCC4)sc3n2)cn1` (centres unmarked) [Example 428], for which the IC50 was less than 2.5 nM.

For the compound `COCC[S@+]([O-])c1sc2nc(-c3cccnc3)cc(C(F)(F)F)c2c1N` [Example 81], the IC50 was not below 10 nM.

Regarding `COCC[S+]([O-])c1sc2nc(-c3cnc4c(c3)nnn4C)cc(C3CC3)c2c1N` (centres unmarked) [Example 244], the IC50 is less than 2.5 nM.

For the compound `Nc1c([S@@+]([O-])C2CCC2)sc2nc(-c3cnc(NCCO)nc3)cc(-c3ccccc3)c12` [Example 52], the IC50 is not below 10 nM.

Turning to `Nc1c([S+]([O-])C2CCC2)sc2nc(-c3cnc(NCCO)nc3)cc(-c3ccc(F)cc3)c12` (centres unmarked) [Example 158], the 50% inhibitory concentration (IC50) was in the range of 2.5 to 10 nM.

For the compound `COCC[S@+]([O-])c1sc2nc(-c3cncnc3)cc(-c3ncccn3)c2c1N` [Example 231], the IC50 was not below 10 nM.

On to `COCC[S+]([O-])c1sc2nc(-c3cnc4ncnn4c3)cc(-c3ccccc3)c2c1N` (centres unmarked) [Example 399], for which the IC50 was less than 2.5 nM.

As to `COCCn1ccc(-c2cc(-c3cnc4nn(C)cc4c3)nc3sc([S+]([O-])CCOC)c(N)c23)n1` (centres unmarked) [Example 386], the IC50 is less than 2.5 nM.

As to `COCC[S@@+]([O-])c1sc2nc(-c3cnc(N)nc3)cc(C(F)(F)F)c2c1N` [Example 202], the half-inhibitory concentration (IC50) is less than 2.5 nM.

As to `COCCC[S@+]([O-])c1sc2nc(-c3cncnc3)cc(-c3ccncn3)c2c1N` [Example 239], the IC50 is not below 10 nM.

In the case of `Cn1cnc(-c2cc(-c3cncnc3)nc3sc([S@@+]([O-])C4CCC4)c(N)c23)c1` [Example 65], the IC50 is not below 10 nM.

As to `COCC[S+]([O-])c1sc2nc(-c3cncnc3)cc(-c3ccnn3C)c2c1N` (centres unmarked) [Example 175], the IC50 fell in the range of 2.5 to 10 nM.

As to `Cn1cc2cc(-c3cc(C4CC4)c4c(N)c([S+]([O-])C5CCC5)sc4n3)cnc2n1` (centres unmarked) [Example 286], the IC50 was less than 2.5 nM.

On to `COCC[S+]([O-])c1sc2nc(-c3cnc4nn(CCO)cc4c3)cc(C3CCC3)c2c1N` (centres unmarked) [Example 266], for which the IC50 is less than 2.5 nM.

Regarding `CN(C)CCNc1ncc(-c2cc(-c3ccccc3)c3c(N)c([S+]([O-])C4CCC4)sc3n2)cn1` (centres unmarked) [Example 45], the IC50 was not below 10 nM.

Take `COCCC[S+]([O-])c1sc2nc(-c3cncnc3)cc(-c3ccnnc3)c2c1N` (centres unmarked) [Example 240]: the IC50 fell in the range of 2.5 to 10 nM.

As to `CN(CCO)c1ncc(-c2cc(-c3ccccc3)c3c(N)c([S@@+]([O-])C4CCC4)sc3n2)cn1` [Example 180], the IC50 was not below 10 nM.

For the compound `COCC[S@@+]([O-])c1sc2nc(-c3cnc4nncn4c3)cc(-c3ccccc3)c2c1N` [Example 359], the IC50 was less than 2.5 nM.

`Nc1c([S+]([O-])C2CCC2)sc2nc(-c3cnc(NCCO)nc3)cc(-c3ncccc3F)c12` (centres unmarked) [Example 122]: the IC50 was less than 2.5 nM.

On to `COCCC[S@@+]([O-])c1sc2nc(-c3cccnc3)nc(-c3ccccc3)c2c1N` [Example 54], for which the IC50 was less than 2.5 nM.

With `Cn1nccc1-c1cc(-c2cnc3c(c2)ncn3C)nc2sc([S+]([O-])C3CCC3)c(N)c12` (centres unmarked) [Example 383], the IC50 was less than 2.5 nM.

As to `Nc1c([S+]([O-])C2CCC2)sc2nc(-c3cnc(NCCO)nc3)cc(-c3ccc(C(F)(F)F)cc3)c12` (centres unmarked) [Example 160], the IC50 was in the range of 2.5 to 10 nM.

Take `COCC[S+]([O-])c1sc2nc(-c3cnc(N)nc3)cc(-c3ccccc3)c2c1N` (centres unmarked) [Example 73]: the IC50 was less than 2.5 nM.

Turning to `COCCC[S@@+]([O-])c1sc2nc(-c3cnc(N)nc3)cc(-c3ccc(F)cc3)c2c1N` [Example 62], the IC50 was less than 2.5 nM.

Consider `COCCn1ccc(-c2cc(-c3cnc4nn(C)cc4c3)nc3sc([S@+]([O-])CCOC)c(N)c23)n1` [Example 387], for which the IC50 is less than 2.5 nM.

As to `Cn1nccc1-c1cc(-c2ccnnc2)nc2sc([S+]([O-])C3CCC3)c(N)c12` (centres unmarked) [Example 345], the IC50 was less than 2.5 nM.

For the compound `COCC[S@+]([O-])c1sc2nc(-c3cncnc3)cc(C(F)(F)F)c2c1N` [Example 199], the IC50 was not below 10 nM.

For the compound `COCCC[S+]([O-])c1sc2nc(-c3cncnc3)cc(C)c2c1N` (centres unmarked) [Example 163], the IC50 was less than 2.5 nM.

On to `COCC[S+]([O-])c1sc2nc(-c3cnc4nnn(C)c4c3)cc(C3CCC3)c2c1N` (centres unmarked) [Example 368], for which the IC50 was less than 2.5 nM.

On to `Nc1c([S+]([O-])C2CCC2)sc2nc(-c3cnc(NCCO)nc3)cc(-c3ccccn3)c12` (centres unmarked) [Example 82], for which the IC50 was less than 2.5 nM.

`Nc1c([S+]([O-])C2CCC2)sc2nc(-c3cnc(CO)nc3)cc(-c3ccccc3)c12` (centres unmarked) [Example 221]: the IC50 is less than 2.5 nM.

Regarding `Nc1c([S@@+]([O-])C2CCC2)sc2nc(-c3ccc(NCCO)nc3)cc(-c3ccccn3)c12` [Example 96], the IC50 is less than 2.5 nM.

`COCC[S+]([O-])c1sc2nc(-c3cnc4nn(C)cc4c3)cc(-c3ccccc3)c2c1N` (centres unmarked) [Example 124]: the IC50 was less than 2.5 nM.

In the case of `COCC[S+]([O-])c1sc2nc(-c3cnc4ncnn4c3)cc(C3CCC3)c2c1N` (centres unmarked) [Example 400], the IC50 is less than 2.5 nM.

With `CN(CCO)c1ncc(-c2cc(C(F)(F)F)c3c(N)c([S+]([O-])C4CCC4)sc3n2)cn1` (centres unmarked) [Example 188], the IC50 was 2.5 to 10 nM.

For the compound `Cn1cc(-c2cc(-c3cnc(N)nc3)nc3sc([S+]([O-])C4CCC4)c(N)c23)cn1` (centres unmarked) [Example 169], the IC50 is less than 2.5 nM.

For `Nc1c([S+]([O-])C2CCC2)sc2nc(-c3ccc(=O)[nH]c3)cc(-c3ccc(C4COC4)cc3)c12` (centres unmarked) [Example 174], the IC50 lay in the range of 2.5 to 10 nM.

For the compound `Cc1ncc(-c2cc(C3=CCNN3C)c3c(N)c([S+]([O-])C4CCC4)sc3n2)cn1` (centres unmarked) [Example 315], the IC50 was 2.5 to 10 nM.

Regarding `Cn1cncc(-c2cc(-c3ccccc3)c3c(N)c([S+]([O-])C4CCC4)sc3n2)c1=O` (centres unmarked) [Example 410], the IC50 fell in the range of 2.5 to 10 nM.

As for `Nc1c([S+]([O-])C2CCC2)sc2nc(-c3cnc(NCCO)nc3)cc(C(F)(F)F)c12` (centres unmarked) [Example 138], the IC50 lay within 2.5 to 10 nM.

Turning to `COCC[S@@+]([O-])c1sc2nc(-c3cncnc3)cc(C(F)(F)F)c2c1N` [Example 198], the IC50 was less than 2.5 nM.

`COCC[S+]([O-])c1sc2nc(-c3cnc4ncn(C)c4c3)cc(-c3ccccc3)c2c1N` (centres unmarked) [Example 361]: the IC50 is less than 2.5 nM.

`CNC(=O)c1ncc(-c2cc(-c3ccccc3)c3c(N)c([S+]([O-])CCCOC)sc3n2)cn1` (centres unmarked) [Example 165]: the IC50 was 2.5 to 10 nM.

For `COCC[S+]([O-])c1sc2nc(-c3cnn(C)c3)cc(C(F)(F)F)c2c1N` (centres unmarked) [Example 426], the IC50 is less than 2.5 nM.

Turning to `COCCC[S@@+]([O-])c1sc2nc(-c3cnc4c(cnn4C)c3)cc(-c3cccnc3)c2c1N` [Example 101], the IC50 is less than 2.5 nM.
